Experimental data: US10633448B2, “IGF-1R antibody-drug-conjugate and its use for the treatment of cancer” (PIERRE FABRE MEDICAMENT, priority 2014, dated 2020)

Legend:
[1] = system: MDA-MB-231 (breast adenocarcinoma) cells; test: ATPlite antiproliferative assay, MDA-MB-231; assay type: cell-based, human; conditions: 72 h drug treatment
Experimental: A549 (Non Small Cell Lung Cancer—ATCC CCL-185) and MDA-MB-231 (breast adenocarcinoma—ATCC HTB-26) cells were cultured in Minimum Essential Medium Eagle (MEM) with 5% fetal calf serum (FCS) and Dulbecco's modified Eagle Medium (DMEM) with 10% FCS respectively. MCF7 (breast ductal carcinoma—ATCC HTB-22) and SN-12C (kidney carcinoma—ATCC) cells were maintained in RPMI1640 medium (without phenol red for MCF7 cells) containing 10% FCS. All the media were supplemented with fungizone (1.25 μg/mL) and penicillin-streptomycin (100 U/100 μg/mL). Cells were cultured under standard conditions in an incubator at 37° C., 5% CO2 and 95% atmospheric humidity.
Selected drugs were investigated for their antiproliferative activity using an ATPlite proliferation assay (Perkin Elmer, Villebon sur Yvette, France) on a comprehensive panel of 4 cell lines. […] On day 4, cell viability was evaluated by dosing the ATP released by viable cells. The number of viable cells was analyzed in comparison with the number of solvent treated cells. The EC50 values were determined with curve fitting analysis (non linear regression model with a sigmoidal dose response, variable hill slope coefficient), performed with the algorithm provided by the GraphPad Software (GraphPad Software Inc., CA, USA).

lysosome functions = test: Inhibition of Ab degradation with lysosome inhibitor; assay type: cell-based; conditions: cells with 10 μg/ml Ab, 2 h at 37° C.
Experimental: In order to confirm that antibodies reached the lysosome were they are degraded, cells were treated or not with bafilomycine A1, a potent inhibitor of lysosome functions. Cells were then incubated with 10 μg/ml of Ab to be tested at 4° C., washed and incubated for 2 h at 37° C. The internalized Ab was detected after cell permeabilisation using a secondary anti-mouse IgG-Alexa 488 Ab.

Compound	EC50 [1] [nM]	degradation of intracellular Ab (lysosome functions)
methyl (S)-2-((2R,3R)-3-((S)-1-((3R,4S,5S)-4-((S)-2-((S)-2-((3-aminobenzyl)(methyl)amino)-3-methylbutanamido)-N,3-dimethylbutanamido)-3-methoxy-5-methylheptanoyl)pyrrolidin-2-yl)-3-methoxy-2-methylpropanamido)-3-phenylpropanoate, trifluoroacetic acid [Compound 15]	0.17	–
CO/C1=C\C(C)=C\[C@@H](C)[C@@H](O)[C@@H](C)C/C(C)=C/C=C/[C@H](OC)[C@@H]([C@@H](C)[C@@H](O)[C@H](C)[C@@]2(O)C[C@@H](O)[C@H](C)[C@@H](C(C)C)O2)OC1=O [bafilomycine A1]	–	prevented the degradation of intracellular Ab
